Experimental data from PubChem BioAssay (NCI).
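Grown in 96-well plates, cells were treated for 48 hours with each compound at five concentrations. Insufficient inhibition: endpoint recorded as highest concentration tested. Abbreviation: GI50, concentration required for 50% inhibition of growth. TGI: concentration producing complete growth inhibition.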

Experiments:
Assay in all cases: NCI tumour cell line growth inhibition, 48 h
786-0 renal = tested on: 786-0 renal
A498 renal = tested on: A498 renal
A549 NSCLC = tested on: A549 NSCLC
ACHN renal = tested on: ACHN renal
BT-549 breast = tested on: BT-549 breast
CCRF-CEM leukemia = tested on: CCRF-CEM leukemia
COLO 205 colon = tested on: COLO 205 colon
DU-145 prostate = tested on: DU-145 prostate
EKVX NSCLC = tested on: EKVX NSCLC
HCC-2998 colon = tested on: HCC-2998 colon
HCT-116 colon = tested on: HCT-116 colon
HCT-15 colon = tested on: HCT-15 colon
HL-60(TB) leukemia = tested on: HL-60(TB) leukemia
HOP-62 NSCLC = tested on: HOP-62 NSCLC
HOP-92 NSCLC = tested on: HOP-92 NSCLC
HS 578T breast = tested on: HS 578T breast
HT29 colon = tested on: HT29 colon
IGROV1 ovarian = tested on: IGROV1 ovarian
K-562 leukemia = tested on: K-562 leukemia
KM12 colon = tested on: KM12 colon
LOX IMVI melanoma = tested on: LOX IMVI melanoma
M14 melanoma = tested on: M14 melanoma
MALME-3M melanoma = tested on: MALME-3M melanoma
MCF7 breast = tested on: MCF7 breast
MDA-MB-231 breast = tested on: MDA-MB-231 breast
MOLT-4 leukemia = tested on: MOLT-4 leukemia
NCI-H226 lung = tested on: NCI-H226 lung
NCI-H23 lung = tested on: NCI-H23 lung
NCI-H460 lung = tested on: NCI-H460 lung
NCI-H522 lung = tested on: NCI-H522 lung
NCI/ADR-RES ovarian = tested on: NCI/ADR-RES ovarian
OVCAR-4 ovarian = tested on: OVCAR-4 ovarian
OVCAR-5 ovarian = tested on: OVCAR-5 ovarian
OVCAR-8 ovarian = tested on: OVCAR-8 ovarian
PC-3 prostate = tested on: PC-3 prostate
RPMI-8226 leukemia = tested on: RPMI-8226 leukemia
RXF 393 renal = tested on: RXF 393 renal
SF-268 CNS = tested on: SF-268 CNS
SF-539 CNS = tested on: SF-539 CNS
SK-MEL-2 melanoma = tested on: SK-MEL-2 melanoma
SK-MEL-28 melanoma = tested on: SK-MEL-28 melanoma
SK-MEL-5 melanoma = tested on: SK-MEL-5 melanoma
SK-OV-3 ovarian = tested on: SK-OV-3 ovarian
SN12C renal = tested on: SN12C renal
SNB-19 CNS = tested on: SNB-19 CNS
SNB-75 CNS = tested on: SNB-75 CNS
SR leukemia = tested on: SR leukemia
SW-620 colon = tested on: SW-620 colon
T-47D breast = tested on: T-47D breast
TK-10 renal = tested on: TK-10 renal
U251 CNS = tested on: U251 CNS
UACC-257 melanoma = tested on: UACC-257 melanoma
UACC-62 melanoma = tested on: UACC-62 melanoma
UO-31 renal = tested on: UO-31 renal

## Cc1cn2c(/C=C3/C(=O)N(C)c4ccccc43)c(C)nc2s1
786-0 renal
  GI50: 20.1 µM
  TGI: > 100 µM
A498 renal
  GI50: 11.9 µM
  TGI: 79.5 µM
A549 NSCLC
  GI50: 12.8 µM
  TGI: > 100 µM
ACHN renal
  GI50: 25.9 µM
  TGI: > 100 µM
BT-549 breast
  GI50: 10.8 µM
  TGI: > 100 µM
CCRF-CEM leukemia
  GI50: 14.5 µM
  TGI: > 100 µM
COLO 205 colon
  GI50: 3.93 µM
  TGI: 21 µM
DU-145 prostate
  GI50: 27.4 µM
  TGI: > 100 µM
EKVX NSCLC
  GI50: 15.8 µM
  TGI: > 100 µM
HCC-2998 colon
  GI50: 7.97 µM
  TGI: 33.5 µM
HCT-116 colon
  GI50: 5.02 µM
  TGI: > 100 µM
HCT-15 colon
  GI50: 5.25 µM
  TGI: > 100 µM
HL-60(TB) leukemia
  GI50: 2.42 µM
  TGI: 6.19 µM
HOP-62 NSCLC
  GI50: 30 µM
  TGI: > 100 µM
HOP-92 NSCLC
  GI50: 31.9 µM
  TGI: > 100 µM
HS 578T breast
  GI50: 9.59 µM
  TGI: 50.4 µM
HT29 colon
  GI50: 3.58 µM
  TGI: > 100 µM
IGROV1 ovarian
  GI50: 6.98 µM
  TGI: 70.3 µM
K-562 leukemia
  GI50: 2.23 µM
  TGI: 7.15 µM
KM12 colon
  GI50: 3.38 µM
  TGI: > 100 µM
LOX IMVI melanoma
  GI50: 11.6 µM
  TGI: > 100 µM
M14 melanoma
  GI50: 5.31 µM
  TGI: > 100 µM
MALME-3M melanoma
  GI50: 54.3 µM
  TGI: > 100 µM
MCF7 breast
  GI50: 1.02 µM
  TGI: 13.3 µM
MDA-MB-231 breast
  GI50: 18.1 µM
  TGI: > 100 µM
MOLT-4 leukemia
  GI50: 4.84 µM
  TGI: 26.8 µM
NCI-H226 lung
  GI50: 40.5 µM
  TGI: > 100 µM
NCI-H23 lung
  GI50: 16.2 µM
  TGI: > 100 µM
NCI-H460 lung
  GI50: 4.06 µM
  TGI: 29.6 µM
NCI-H522 lung
  GI50: 5.04 µM
  TGI: 30.2 µM
NCI/ADR-RES ovarian
  GI50: 3.4 µM
  TGI: 41 µM
OVCAR-4 ovarian
  GI50: 21.9 µM
  TGI: > 100 µM
OVCAR-5 ovarian
  GI50: 28.6 µM
  TGI: > 100 µM
OVCAR-8 ovarian
  GI50: 29.2 µM
  TGI: > 100 µM
PC-3 prostate
  GI50: 16.5 µM
  TGI: > 100 µM
RPMI-8226 leukemia
  GI50: 17 µM
  TGI: > 100 µM
RXF 393 renal
  GI50: 53.8 µM
  TGI: > 100 µM
SF-268 CNS
  GI50: 22.1 µM
  TGI: > 100 µM
SF-539 CNS
  GI50: 10.7 µM
  TGI: 52.9 µM
SK-MEL-2 melanoma
  GI50: 5.33 µM
  TGI: 58.3 µM
SK-MEL-28 melanoma
  GI50: 14.2 µM
  TGI: 53.4 µM
SK-MEL-5 melanoma
  GI50: 4.71 µM
  TGI: 25.5 µM
SK-OV-3 ovarian
  GI50: 6.87 µM
  TGI: 31.9 µM
SN12C renal
  GI50: 25.5 µM
  TGI: > 100 µM
SNB-19 CNS
  GI50: 5.51 µM
  TGI: 27.7 µM
SNB-75 CNS
  GI50: 4.69 µM
  TGI: 23.4 µM
SR leukemia
  GI50: 2.48 µM
  TGI: 7.37 µM
SW-620 colon
  GI50: 4.3 µM
  TGI: > 100 µM
T-47D breast
  GI50: 4.49 µM
  TGI: > 100 µM
TK-10 renal
  GI50: 21.5 µM
  TGI: > 100 µM
U251 CNS
  GI50: 8.08 µM
  TGI: > 100 µM
UACC-257 melanoma
  GI50: 67.8 µM
  TGI: > 100 µM
UACC-62 melanoma
  GI50: 12.2 µM
  TGI: 97.9 µM
UO-31 renal
  GI50: 17.2 µM
  TGI: > 100 µM
